Assay results as given in paper PMC7413254 (Nature Communications, 2020).
Like-named read-outs stand apart in the source and are kept apart here.

What was measured:
non-expressing oocytes [1] = type: cell-based, Xenopus laevis; conditions: total [3H]CQ transport; for Uptake of [3H]CQ (% non-expressing oocyte control), trans-stimulation: non-expressing oocytes, normalised to the oocyte type control; for Uptake of [3H]CQ (% PfCRTDd2 control), trans-stimulation, non-expressing oocytes: mean ± SEM, SEM
Outline: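 Oocytes (ten per treatment, ≥4 independent frogs/days) were preloaded by injecting VF-6 in 25 nL ND96 at pH 5.0, 5.5, 6.0 or 7.0, or Na^+-free choline buffer, then uptake run 1.5 h, 27.5 °C, ND96 pH 5.5 by default. Internal concentrations assumed ~400 nL oocyte volume.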

non-expressing oocytes [2] = test: cells; type: cell-based, Xenopus laevis; conditions: Xenopus laevis, total [3H]CQ transport; for inhibition at 500 µM: [test solute] = 0.5 mM; for inhibition at 1000 µM: [test solute] = 1 mM; for inhibition at 2000 µM: [test solute] = 2 mM
Outline: (§1)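 Oocytes expressing PfCRT isoforms, or non-expressing controls, were incubated 1.5 h at 27.5 °C in ND96 buffer pH 5.5 (96 mM NaCl, 2 mM KCl, 1 mM MgCl2, 1.8 mM CaCl2, 10 mM MES, 10 mM Tris-base), measuring uptake from acidic medium into cytosol. Oocytes were washed ice-cold, SDS-lysed and counted by scintillation.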

PfCRT^3D7 [3] = molecular target: T1, PfCRT^3D7 (Plasmodium falciparum, UniProt Q8IBZ9); test: cell-based; type: cell-based; conditions: total [3H]CQ transport; for inhibition at 500 µM: [test solute] = 0.5 mM; for inhibition at 1000 µM: [test solute] = 1 mM; for inhibition at 2000 µM: [test solute] = 2 mM
T1 sequence (Q8IBZ9 59-398): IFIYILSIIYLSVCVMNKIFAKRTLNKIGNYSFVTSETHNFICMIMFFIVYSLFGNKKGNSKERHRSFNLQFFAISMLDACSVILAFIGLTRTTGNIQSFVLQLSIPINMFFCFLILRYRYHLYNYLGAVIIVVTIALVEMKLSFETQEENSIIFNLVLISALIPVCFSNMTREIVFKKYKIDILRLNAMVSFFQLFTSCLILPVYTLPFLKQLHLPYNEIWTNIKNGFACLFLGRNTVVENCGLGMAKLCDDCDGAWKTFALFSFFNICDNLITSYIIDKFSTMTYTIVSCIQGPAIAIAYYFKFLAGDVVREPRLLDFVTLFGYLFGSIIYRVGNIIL
Outline: as §1

PfCRT^Dd2 [4] = molecular target: T2, PfCRT^Dd2 (Plasmodium falciparum, UniProt Q9N623, A220S/I356T/K76T/M74I/N326S/N75E/Q271E/R371I); test: cell-based; type: cell-based; conditions: […]; for activity at 45000 µM: [test solute]i = 45 mM (30 mM for some solutes due to solubility)
T2 sequence (Q9N623 whole entry A220S/I356T/K76T/M74I/N326S/N75E/Q271E/R371I): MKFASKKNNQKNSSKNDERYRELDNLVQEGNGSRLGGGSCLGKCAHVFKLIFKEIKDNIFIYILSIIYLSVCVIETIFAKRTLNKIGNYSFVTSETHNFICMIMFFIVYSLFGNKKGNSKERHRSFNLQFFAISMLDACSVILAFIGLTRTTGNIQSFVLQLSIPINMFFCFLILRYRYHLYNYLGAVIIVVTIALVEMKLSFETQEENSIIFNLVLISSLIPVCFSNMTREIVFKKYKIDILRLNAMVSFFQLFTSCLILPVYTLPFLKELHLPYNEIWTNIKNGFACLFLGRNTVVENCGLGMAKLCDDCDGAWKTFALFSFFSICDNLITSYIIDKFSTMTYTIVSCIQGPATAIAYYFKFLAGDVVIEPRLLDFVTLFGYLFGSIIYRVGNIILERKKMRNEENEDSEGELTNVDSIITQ
Outline: (§2)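 Transport measured in Xenopus oocytes expressing the transporters, 1.5 h at 27.5 °C in ND96 pH 5.5 unless noted. For trans-stimulation, VF-6 injected in 25 nL ND96 at pH 5.0–7.0 or Na^+-free (choline) buffer; intracellular levels based on ~400 nL oocyte volume. Ten oocytes per treatment, ≥4 experiments.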

PfCRT^3D7 [5] = molecular target: T1, PfCRT^3D7; test: cell-based; type: cell-based
Outline: as §2

PfCRT^Ecu1110 [6] = molecular target: T3, PfCRT^Ecu1110 (Plasmodium falciparum, UniProt Q9N623, A220S/I356L/K76T/N326D); test: cell-based; type: cell-based; conditions: […]
T3 sequence (Q9N623 whole entry A220S/I356L/K76T/N326D): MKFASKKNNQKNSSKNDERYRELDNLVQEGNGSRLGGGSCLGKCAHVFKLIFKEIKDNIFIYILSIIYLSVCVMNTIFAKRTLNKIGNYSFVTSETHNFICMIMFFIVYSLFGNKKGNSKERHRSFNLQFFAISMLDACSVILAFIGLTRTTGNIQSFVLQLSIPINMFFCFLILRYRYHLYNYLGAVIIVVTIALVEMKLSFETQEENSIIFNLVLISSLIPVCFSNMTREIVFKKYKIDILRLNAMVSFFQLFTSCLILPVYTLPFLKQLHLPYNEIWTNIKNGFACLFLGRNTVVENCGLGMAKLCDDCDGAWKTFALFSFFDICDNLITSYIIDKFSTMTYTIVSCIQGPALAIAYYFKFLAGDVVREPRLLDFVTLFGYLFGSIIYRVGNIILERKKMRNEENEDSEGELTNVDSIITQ
Outline: as §2

PfNT1 = molecular target: T4, PfNT1 (Plasmodium falciparum, UniProt Q8IDM6); test: cell-based; type: cell-based; conditions: for activity at 5000 µM: total [3H]CQ transport
T4 construct: expressed in transfected cells; host or cells: Xenopus laevis oocytes (stage V-VI), cRNA-injected
T4 sequence (Q8IDM6 whole entry): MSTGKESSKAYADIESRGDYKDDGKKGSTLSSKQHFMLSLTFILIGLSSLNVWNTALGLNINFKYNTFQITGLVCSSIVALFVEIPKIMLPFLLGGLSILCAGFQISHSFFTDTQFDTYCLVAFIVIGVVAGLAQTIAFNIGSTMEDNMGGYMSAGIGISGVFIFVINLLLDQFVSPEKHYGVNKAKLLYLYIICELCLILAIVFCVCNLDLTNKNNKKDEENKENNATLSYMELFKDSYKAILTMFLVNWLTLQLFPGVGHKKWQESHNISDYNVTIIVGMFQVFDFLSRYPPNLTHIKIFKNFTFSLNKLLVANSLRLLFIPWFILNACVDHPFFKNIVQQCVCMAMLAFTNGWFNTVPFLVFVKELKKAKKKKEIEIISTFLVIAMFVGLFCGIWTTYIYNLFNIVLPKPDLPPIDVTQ
Outline: as §2

PfCRT^Dd2 [7] = molecular target: T2, PfCRT^Dd2; test: [3H]CQ uptake into Xenopus oocytes, cis-inhibition by unlabelled solute; type: cell-based
Outline: as §1

PfCRT^Ecu1110 [8] = molecular target: T3, PfCRT^Ecu1110; test: as above; type: cell-based
Outline: as §1

PfCRT [9] = test: Potential co-substrates tested for influx of VF-6 via PfCRT into the oocyte; type: cell-based, Plasmodium falciparum; set-up: key: X: Compounds that have been tested as potential co-substrates but are not required for influx of VF-6 via PfCRT into the oocyte
PfCRT [10] = test: Test of solutes as potential co-substrates for influx of VF-6 via PfCRT into the oocyte; type: cell-based, Plasmodium falciparum; set-up: key: X: Compounds that have been tested as potential co-substrates but are not required for influx of VF-6 via PfCRT into the oocyte; conditions: X = tested
[11] = Oocyte, mean ± SEM, SEM, read-out: Uptake of [3H]CQ (% PfCRTDd2 control), cis-inhibition, non-expressing oocytes
[12] = non-expressing oocytes, normalised to the oocyte type control, read-out: Uptake of [3H]CQ (% non-expressing oocyte control), cis-inhibition
[13] = PfCRT3D7 oocytes, normalised to the oocyte type control, read-out: Uptake of [3H]CQ (% PfCRT3D7 control), cis-inhibition
[14] = mean ± SEM, SEM, read-out: Uptake of [3H]CQ (% PfCRTDd2 control), cis-inhibition, PfCRT3D7
[15] = read-out: PfCRT-mediated [3H]CQ transport, cis-inhibition (% PfCRTDd2 control)
[16] = read-out: Uptake of [3H]CQ (% PfCRTDd2 control), cis-inhibition
[17] = read-out: Uptake of [3H]CQ (% PfCRTDd2 control), cis-inhibition, PfCRTDd2, SEM
[18] = read-out: [3H]CQ transport (% PfCRTDd2 control), cis-inhibition, PfCRTDd2, SEM
[19] = read-out: PfCRT-mediated [3H]CQ transport, cis-inhibition (% PfCRTEcu1110 control)
[20] = read-out: Uptake of [3H]CQ (% PfCRTDd2 control), cis-inhibition, PfCRTEcu1110, SEM
[21] = read-out: Uptake of [3H]CQ (% PfCRTEcu1110 control), cis-inhibition
[22] = read-out: [3H]CQ transport (% PfCRTEcu1110 control), cis-inhibition, PfCRTEcu1110, SEM

## CC(C)[C@H](N)C(=O)O [L-valine]
non-expressing oocytes [1]; [test solute]i = 5 mM
  Uptake of [3H]CQ (% non-expressing oocyte control), trans-stimulation: 99 ± 4.1 % non-expressing oocyte control
non-expressing oocytes [1]; [test solute]i = 45 mM (30 mM for some solutes due to solubility)
  Uptake of [3H]CQ (% non-expressing oocyte control), trans-stimulation: 100 ± 2.6 % non-expressing oocyte control
non-expressing oocytes [1]; [test solute]i = 5 mM (intracellular)
  Uptake of [3H]CQ (% PfCRTDd2 control), trans-stimulation, non-expressing oocytes: 2.6 ± 0.08 % PfCRTDd2 control
non-expressing oocytes [1]; [test solute]i = 45 mM (intracellular; 30 mM for some solutes due to solubility)
  Uptake of [3H]CQ (% PfCRTDd2 control), trans-stimulation, non-expressing oocytes: 2.7 ± 0.03 % PfCRTDd2 control
non-expressing oocytes [2]; [11]
  inhibition at 500 µM: 2.7 ± 0.05%
  inhibition at 1000 µM: 2.5 ± 0.04%
  inhibition at 2000 µM: 2.8 ± 0.07%
non-expressing oocytes [2]; [12]
  inhibition at 500 µM: 100 ± 4.8%
  inhibition at 1000 µM: 101 ± 6.2%
  inhibition at 2000 µM: 99 ± 6.2%
PfCRT^3D7 [3]; [13]
  inhibition at 500 µM: 99 ± 3.6%
  inhibition at 1000 µM: 99 ± 3.9%
  inhibition at 2000 µM: 100 ± 5.5%
PfCRT^3D7 [3]; [14]
  inhibition at 500 µM: 3.1 ± 0.07%
  inhibition at 1000 µM: 3.4 ± 0.01%
  inhibition at 2000 µM: 3.4 ± 0.04%
PfCRT^Dd2 [4]; pH 5.5, read-out: PfCRT-mediated [3H]CQ transport, trans-stimulation (% PfCRTDd2 control), [test solute]i = 5 mM (intracellular), PfCRTDd2 oocytes, normalised to oocyte type control
  activity at 5000 µM: 97 ± 4.2%
PfCRT^Dd2 [4]; pH 5.5, read-out: Uptake of [3H]CQ (% PfCRTDd2 control), trans-stimulation, PfCRTDd2, total [3H]CQ transport, [test solute]i = 5 mM (intracellular), mean ± SEM, SEM
  activity at 5000 µM: 99 ± 3.2%
PfCRT^Dd2 [4]; pH 5.5, read-out: Uptake of [3H]CQ (% PfCRTDd2 control), trans-stimulation, PfCRTDd2 oocytes, [test solute]i = 5 mM, total [3H]CQ transport, normalised to the oocyte type control
  activity at 5000 µM: 99 ± 3.2%
PfCRT^Dd2 [4]; pH 5.5, read-out: Uptake of [3H]CQ (% PfCRTDd2 control), trans-stimulation, PfCRTDd2 oocytes, total [3H]CQ transport, normalised to the oocyte type control
  activity at 45000 µM: 97 ± 1.1%
PfCRT^Dd2 [4]; pH 5.5, read-out: [3H]CQ transport (% PfCRTDd2 control), trans-stimulation, PfCRTDd2, trans-stimulation, [test solute]i = 5 mM (injected), PfCRT-mediated component (background subtracted), mean ± SEM, SEM
  activity at 5000 µM: 97 ± 4.2%
PfCRT^Dd2 [4]; pH 5.5, read-out: [3H]CQ transport (% PfCRTDd2 control), trans-stimulation, PfCRTDd2, trans-stimulation, PfCRT-mediated component (background subtracted), mean ± SEM, SEM
  activity at 45000 µM: 95 ± 2.5%
PfCRT^3D7 [5]; PfCRT3D7 oocytes, [test solute]i = 5 mM, total [3H]CQ transport, normalised to the oocyte type control, read-out: Uptake of [3H]CQ (% PfCRT3D7 control), trans-stimulation
  activity at 5000 µM: 98 ± 4.2%
PfCRT^3D7 [5]; SEM
  [3H]CQ transport (% PfCRT3D7 control), trans-stimulation, PfCRT3D7: 0.3 ± 0.01 % PfCRT3D7 control
PfCRT^3D7 [5]; [test solute]i = 5 mM (intracellular), PfCRT3D7 oocytes, normalised to oocyte type control, read-out: PfCRT-mediated [3H]CQ transport, trans-stimulation (% PfCRT3D7 control)
  activity at 5000 µM: 96 ± 3.3%
PfCRT^3D7 [5]; SEM, read-out: Uptake of [3H]CQ (% PfCRTDd2 control), trans-stimulation, PfCRT3D7
  activity at 45000 µM: 3.3 ± 0.01%
PfCRT^3D7 [5]; read-out: PfCRT-mediated [3H]CQ transport, trans-stimulation (% PfCRT3D7 control)
  activity at 45000 µM: 96 ± 2.4%
PfCRT^3D7 [5]; read-out: Uptake of [3H]CQ (% PfCRT3D7 control), trans-stimulation
  activity at 45000 µM: 98 ± 3.7%
PfCRT^3D7 [5]; total [3H]CQ transport, [test solute]i = 5 mM (intracellular), mean ± SEM, SEM, read-out: Uptake of [3H]CQ (% PfCRTDd2 control), trans-stimulation, PfCRT3D7
  activity at 5000 µM: 3.3 ± 0.05%
PfCRT^Ecu1110 [6]; pH 5.5, read-out: PfCRT-mediated [3H]CQ transport, trans-stimulation (% PfCRTEcu1110 control), [test solute]i = 5 mM (intracellular), PfCRTEcu1110 oocytes, normalised to oocyte type control
  activity at 5000 µM: 96 ± 3.3%
PfCRT^Ecu1110 [6]; pH 5.5, read-out: Uptake of [3H]CQ (% PfCRTEcu1110 control), trans-stimulation, PfCRTEcu1110 oocytes, [test solute]i = 5 mM, total [3H]CQ transport, normalised to the oocyte type control
  activity at 5000 µM: 98 ± 3.6%
PfCRT^Ecu1110 [6]; pH 5.5, read-out: Uptake of [3H]CQ (% PfCRTEcu1110 control), trans-stimulation, PfCRTEcu1110 oocytes, [test solute]i = 45 mM (30 mM for some solutes due to solubility), total [3H]CQ transport, normalised to the oocyte type control
  activity at 45000 µM: 100 ± 2.5%
PfCRT^Ecu1110 [6]; read-out: Uptake of [3H]CQ (% PfCRTDd2 control), trans-stimulation, PfCRTEcu1110, total [3H]CQ transport, [test solute]i = 5 mM (intracellular), mean ± SEM, SEM
  activity at 5000 µM: 35 ± 1.6%
PfCRT^Ecu1110 [6]; read-out: Uptake of [3H]CQ (% PfCRTDd2 control), trans-stimulation, PfCRTEcu1110, total [3H]CQ transport, [test solute]i = 45 mM (intracellular; 30 mM for some solutes due to solubility), mean ± SEM, SEM
  activity at 45000 µM: 36 ± 1.4%
PfNT1; PfNT1 oocytes, [test solute]i = 5 mM, normalised to the oocyte type control, read-out: Uptake of [3H]CQ (% PfNT1 control), trans-stimulation
  activity at 5000 µM: 99 ± 2.9%
PfNT1; SEM, read-out: Uptake of [3H]CQ (% PfCRTDd2 control), trans-stimulation, PfNT1
  activity at 45000 µM: 2.9 ± 0.04%
PfNT1; read-out: Uptake of [3H]CQ (% PfNT1 control), trans-stimulation
  activity at 45000 µM: 100 ± 3.2%
PfNT1; [test solute]i = 5 mM (intracellular), mean ± SEM, SEM, read-out: Uptake of [3H]CQ (% PfCRTDd2 control), trans-stimulation, PfNT1
  activity at 5000 µM: 2.7 ± 0.01%
PfCRT^Dd2 [7]; [15]
  inhibition at 500 µM: 98 ± 3.6%
  inhibition at 1000 µM: 98 ± 4.6%
  inhibition at 2000 µM: 93 ± 4.1%
PfCRT^Dd2 [7]; [16]
  inhibition at 500 µM: 100 ± 2.6%
  inhibition at 1000 µM: 100 ± 2.2%
PfCRT^Dd2 [7]; [17]
  inhibition at 500 µM: 100 ± 2.6%
  inhibition at 1000 µM: 100 ± 2.2%
  inhibition at 2000 µM: 95 ± 1.4%
PfCRT^Dd2 [7]; [18]
  inhibition at 500 µM: 98 ± 3.6%
  inhibition at 1000 µM: 98 ± 4.6%
PfCRT^Ecu1110 [8]; [19]
  inhibition at 500 µM: 98 ± 2.5%
  inhibition at 1000 µM: 95 ± 2.6%
  inhibition at 2000 µM: 94 ± 2.5%
PfCRT^Ecu1110 [8]; [20]
  inhibition at 500 µM: 33 ± 1%
  inhibition at 1000 µM: 32 ± 1.3%
  inhibition at 2000 µM: 31 ± 1.6%
PfCRT^Ecu1110 [8]; [21]
  inhibition at 500 µM: 100 ± 1.5%
  inhibition at 1000 µM: 97 ± 1.7%
  inhibition at 2000 µM: 96 ± 1.5%
PfCRT^Ecu1110 [8]; [22]
  inhibition at 500 µM: 30 ± 0.6%
  inhibition at 1000 µM: 29 ± 1.4%
  inhibition at 2000 µM: 28 ± 0.4%
PfCRT [9]
  Tested as potential co-substrate but not required for influx of VF-6 via PfCRT into the oocyte: X
PfCRT [10]
  Tested as potential co-substrate but not required for influx of VF-6 via PfCRT into the oocyte: X
